According to patent US12077503B2, “Substituted cyclic amides and their use as herbicides” (FMC CORPORATION, priority 2015, dated 2024):

Columns and labels:
Type in all cases: in vivo
corn (Zea mays) = assay: Test A postemergence
Description: (§1) Seeds of plant species selected from barnyardgrass (Echinochloa crus-galli), Kochia (Kochia scoparia), ragweed (common ragweed, Ambrosia elatior), ryegrass, Italian (Italian ryegrass, Lolium multiflorum), crabgrass, large (Digitaria sanguinalis), giant foxtail (Setaria faberii), green foxtail (Setaria viridis), morningglory (Ipomoea spp.), pigweed (Amaranthus retroflexus), velvetleaf (Abutilon theophrasti), wheat (Triticum aestivum), and corn (Zea mays) were planted into a blend of loam soil and sand and treated preemergence with a directed soil spray using test chemicals formulated in anon-phytotoxic solvent mixture which included a surfactant.
(§2) At the same time, plants selected from these crop and weed species and also blackgrass (Alopecurus myosuroides), and Galium (catchweed bedstraw, Galium aparine) were planted in pots containing the same blend of loam soil and sand and treated with postemergence applications of test chemicals formulated in the same manner. Plants ranged in height from 2 to 10 cm and were in the one- to two-leaf stage for the postemergence treatment. Treated plants and untreated controls were maintained in a greenhouse for approximately 10 d, after which time all treated plants were compared to untreated controls and visually evaluated for injury. Plant response ratings, summarized in Table A, are based on a 0 to 100 scale where 0 is no effect and 100 is complete control. A dash (-) response means no test result.

[1] = system: ryegrass, Italian (Italian ryegrass, Lolium multiflorum); assay: Test A postemergence
Description: as §1, §2

[2] = system: blackgrass (Alopecurus myosuroides); assay: Test A postemergence
Description: as §1, §2

Kochia (Kochia scoparia) [3] = assay: Test A postemergence
Description: as §1, §2

[4] = system: barnyardgrass (Echinochloa crus-galli); assay: Test A postemergence
Description: as §1, §2

[5] = system: Galium (catchweed bedstraw, Galium aparine); assay: Test A postemergence
Description: as §1, §2

[6] = system: giant foxtail (Setaria faberii); assay: Test A postemergence
Description: as §1, §2

[7] = system: wheat (Triticum aestivum); assay: Test A postemergence
Description: as §1, §2

[8] = system: ragweed (common ragweed, Ambrosia elatior); assay: Test A postemergence
Description: as §1, §2

[9] = system: pigweed (Amaranthus retroflexus); assay: Test A postemergence
Description: as §1, §2

[10] = system: sedge, umbrella (small-flower umbrella sedge, Cyperus difformis); assay: Test B flooded paddy test; conditions: Flood, 250 g ai/ha
Method: (§3) Plant species in the flooded paddy test selected from rice (Oryra sativa), sedge, umbrella (small-flower umbrella sedge, Cyperus difformis), ducksalad (Heteranthera limosa), and barnyardgrass (Echinochloa crus-galli) were grown to the 2-leaf stage for testing. At time of treatment, test pots were flooded to 3 cm above the soil surface, treated by application of test compounds directly to the paddy water, and then maintained at that water depth for the duration of the test. Treated plants and controls were maintained in a greenhouse for 13 to 15 d, after which time all species were compared to controls and visually evaluated. Plant response ratings, summarized in Table B, are based on a scale of 0 to 100 where 0 is no effect and 100 is complete control. A dash (-) response means no test result.

[11] = system: barnyardgrass (Echinochloa crus-galli); assay: Test B flooded paddy test; conditions: Flood, 250 g ai/ha, 0 to 100 scale where 0 is no effect and 100 is complete control
Method: as §3

rice (Oryra sativa) = assay: Test B flooded paddy test; conditions: Flood, 250 g ai/ha, 0 to 100 scale where 0 is no effect and 100 is complete control
Method: as §3

[12] = system: ducksalad (Heteranthera limosa); assay: Test B flooded paddy test; conditions: Flood, 250 g ai/ha, 0 to 100 scale where 0 is no effect and 100 is complete control
Method: as §3

[13] = system: ryegrass, Italian (Italian ryegrass, Lolium multiflorum); assay: Test A preemergence; conditions: for Plant response rating, Ryegrass, Italian: 125 g ai/ha, 0 to 100 scale (0 no effect, 100 complete control)
Description: as §1, §2

Kochia (Kochia scoparia) [14] = assay: Test A preemergence
Description: as §1, §2

[15] = system: barnyardgrass (Echinochloa crus-galli); assay: Test A preemergence
Description: as §1, §2

[16] = system: giant foxtail (Setaria faberii); assay: Test A preemergence; conditions: for Plant response rating, Foxtail, Giant: 125 g ai/ha, 0 to 100 scale (0 no effect, 100 complete control)
Description: as §1, §2

[17] = system: ragweed (common ragweed, Ambrosia elatior); assay: Test A preemergence; conditions: for Plant response rating, Ragweed: 125 g ai/ha, 0 to 100 scale (0 no effect, 100 complete control)
Description: as §1, §2

[18] = system: pigweed (Amaranthus retroflexus); assay: Test A preemergence
Description: as §1, §2

[19] = 500 g ai/ha, postemergence, 0 to 100 scale, 0 no effect, 100 complete control
[20] = Postemergence, 125 g ai/ha, visual injury, 0 to 100 scale (0 no effect, 100 complete control), approx. 10 d
[21] = Preemergence, 500 g ai/ha, 0 is no effect, 100 is complete control
[22] = 125 g ai/ha, preemergence, 0 to 100 scale (0 no effect, 100 complete control)
[23] = 125 g ai/ha, Postemergence, visual rating about 10 d after treatment
[24] = Postemergence, 500 g ai/ha, visual injury, 0 to 100 scale (0 no effect, 100 complete control), approx. 10 d
[25] = 500 g ai/ha, preemergence, 0 to 100 scale where 0 is no effect and 100 is complete control

Cc1ccc(C2CNC(=O)C2C(=O)Nc2cccc(F)c2F)cc1F (racemic) [Compound 369]
Plant response rating, Corn (corn (Zea mays); [19]): 50 | Plant response rating, Corn (corn (Zea mays); [20]): 0 | Plant response rating, Ryegrass, Italian [1, 19]: 50 | Plant response rating, Ryegrass, Italian [1, 20]: 20 | Plant response rating, Blackgrass [2, 19]: 70 | Plant response rating, Blackgrass [2, 20]: 30 | Plant response rating, Kochia (Kochia (Kochia scoparia) [3]; [19]): 60 | Plant response rating, Kochia (Kochia (Kochia scoparia) [3]; [20]): 20 | Plant response rating, Barnyardgrass [4, 19]: 90 | Plant response rating, Barnyardgrass [4, 20]: 90 | Plant response rating, Galium [5, 19]: 70 | Plant response rating, Galium [5, 20]: 60 | Plant response rating, Foxtail, Giant [6, 19]: 80 | Plant response rating, Foxtail, Giant [6, 20]: 20 | Plant response rating, Wheat [7, 19]: 60 | Plant response rating, Wheat [7, 20]: 0 | Plant response rating, Ragweed [8, 19]: 30 | Plant response rating, Ragweed [8, 20]: 0 | Plant response rating, Pigweed [9, 19]: 0 | Plant response rating, Pigweed [9, 20]: 0 | Plant response rating, Sedge, Umbrella ([10]; 0 to 100 scale where 0 is no effect and 100 is complete control, 13 to 15 d): 0 | Plant response rating, Barnyardgrass ([11]; 13 to 15 d): 20 | Plant response rating, Rice (rice (Oryra sativa); 13 to 15 d): 0 | Plant response rating, Ducksalad ([12]; 13 to 15 d): 100 | Plant response rating, Ryegrass, Italian ([13]; preemergence): 0 | Ryegrass, Italian plant response rating (0 to 100 scale) [13, 21]: 20 | Plant response rating, Kochia (Kochia (Kochia scoparia) [14]; [22]): 50 | Kochia plant response rating (0 to 100 scale) (Kochia (Kochia scoparia) [14]; [21]): 40 | Plant response rating, Barnyardgrass [15, 22]: 90 | Barnyardgrass plant response rating (0 to 100 scale) [15, 21]: 90 | Plant response rating, Foxtail, Giant ([16]; preemergence): 90 | Foxtail, Giant plant response rating (0 to 100 scale) [16, 21]: 90 | Plant response rating, Ragweed ([17]; preemergence): 60 | Ragweed plant response rating (0 to 100 scale) [17, 21]: 60 | Plant response rating, Pigweed [18, 22]: 0 | Pigweed plant response rating (0 to 100 scale) [18, 21]: 0

Cc1cc([C@H]2CN(C)C(=O)[C@@H]2C(=O)Nc2ccccc2[S+](C)[O-])ccc1F (stereo partly drawn) [Compound 1313]
Corn plant response rating (0 to 100 scale) (corn (Zea mays); [23]): 0 | Plant response rating, Corn (corn (Zea mays); [24]): 0 | pest or weed control at 125 g/ha ([1]; Lolium multiflorum, post-emergence, 240 h, 125 g ai/ha, Postemergence, visual rating about 10 d after treatment, read-out: Ryegrass, Italian plant response rating (0 to 100 scale)): 0% | pest or weed control at 500 g/ha ([1]; Lolium multiflorum, post-emergence, 240 h, Postemergence, 500 g ai/ha, visual injury, 0 to 100 scale (0 no effect, 100 complete control), approx. 10 d, read-out: Plant response rating, Ryegrass, Italian): 0% | pest or weed control at 125 g/ha ([2]; Alopecurus myosuroides, post-emergence, 240 h, 125 g ai/ha, Postemergence, visual rating about 10 d after treatment, read-out: Blackgrass plant response rating (0 to 100 scale)): 0% | Plant response rating, Blackgrass [2, 24]: 0 | Kochia plant response rating (0 to 100 scale) (Kochia (Kochia scoparia) [3]; [23]): 20 | pest or weed control at 500 g/ha (Kochia (Kochia scoparia) [3]; Bassia scoparia, post-emergence, 240 h, Postemergence, 500 g ai/ha, visual injury, 0 to 100 scale (0 no effect, 100 complete control), approx. 10 d, read-out: Plant response rating, Kochia): 50% | Galium plant response rating (0 to 100 scale) [5, 23]: 0 | pest or weed control at 500 g/ha ([5]; Galium, post-emergence, 240 h, Postemergence, 500 g ai/ha, visual injury, 0 to 100 scale (0 no effect, 100 complete control), approx. 10 d, read-out: Plant response rating, Galium): 40% | pest or weed control at 125 g/ha ([6]; Setaria faberi, post-emergence, 240 h, 125 g ai/ha, Postemergence, visual rating about 10 d after treatment, read-out: Foxtail, Giant plant response rating (0 to 100 scale)): 90% | pest or weed control at 500 g/ha ([6]; Setaria faberi, post-emergence, 240 h, Postemergence, 500 g ai/ha, visual injury, 0 to 100 scale (0 no effect, 100 complete control), approx. 10 d, read-out: Plant response rating, Foxtail, Giant): 90% | Wheat plant response rating (0 to 100 scale) [7, 23]: 0 | Plant response rating, Wheat [7, 24]: 0 | pest or weed control at 125 g/ha ([8]; Ambrosia artemisiifolia, post-emergence, 240 h, 125 g ai/ha, Postemergence, visual rating about 10 d after treatment, read-out: Ragweed plant response rating (0 to 100 scale)): 0% | Plant response rating, Ragweed [8, 24]: 0 | pest or weed control at 125 g/ha ([9]; Amaranthus retroflexus, post-emergence, 240 h, 125 g ai/ha, Postemergence, visual rating about 10 d after treatment, read-out: Pigweed plant response rating (0 to 100 scale)): 0% | Plant response rating, Pigweed [9, 24]: 0 | pest or weed control at 250 g/ha ([10]; Cyperus difformis, 360 h, visually evaluated after 13 to 15 d, read-out: Plant response rating, Sedge, Umbrella (0 to 100 scale where 0 is no effect and 100 is complete control)): 0% | Barnyardgrass plant response rating [11]: 25 | pest or weed control at 250 g/ha (rice (Oryra sativa); Oryza sativa, read-out: Rice plant response rating): 0% | Ducksalad plant response rating [12]: 70 | Plant response rating, Ryegrass, Italian ([13]; Preemergence): 0 | pest or weed control at 500 g/ha (Kochia (Kochia scoparia) [14]; Bassia scoparia, pre-emergence, 240 h, 500 g ai/ha, preemergence, 0 to 100 scale where 0 is no effect and 100 is complete control, read-out: Kochia plant response rating): 100% | pest or weed control at 125 g/ha (Kochia (Kochia scoparia) [14]; Bassia scoparia, pre-emergence, 240 h, Preemergence, 125 g ai/ha, 0 to 100 scale (0 no effect, 100 complete control), read-out: Plant response rating, Kochia): 90% | pest or weed control at 500 g/ha ([15]; Echinochloa crus-galli, pre-emergence, 240 h, 500 g ai/ha, preemergence, 0 to 100 scale where 0 is no effect and 100 is complete control, read-out: Barnyardgrass plant response rating): 100% | pest or weed control at 125 g/ha ([15]; Echinochloa crus-galli, pre-emergence, 240 h, Preemergence, 125 g ai/ha, 0 to 100 scale (0 no effect, 100 complete control), read-out: Plant response rating, Barnyardgrass): 90% | Plant response rating, Foxtail, Giant ([16]; Preemergence): 20 | pest or weed control at 500 g/ha ([16]; Setaria faberi, pre-emergence, 240 h, 500 g ai/ha, preemergence, 0 to 100 scale where 0 is no effect and 100 is complete control, read-out: Foxtail, Giant plant response rating): 80% | Ragweed plant response rating [17, 25]: 0 | Plant response rating, Ragweed ([17]; Preemergence): 0 | Pigweed plant response rating [18, 25]: 0 | pest or weed control at 125 g/ha ([18]; Amaranthus retroflexus, pre-emergence, 240 h, Preemergence, 125 g ai/ha, 0 to 100 scale (0 no effect, 100 complete control), read-out: Plant response rating, Pigweed): 0%
